In patent publication US20160346313A1, “USES OF OLIGOURONATES IN CANCER TREATMENT” (NORWEGIAN UNIVERSITY OF SCIENCE AND TECHNOLOGY, priority 2013, published 2016):

Tested on: Capan-2 human pancreas tumour xenograft
Test: Capan-2 human pancreas tumour xenograft model: tumour weight, with statistical analysis (ANOVA by day, Eav, log scale, exponential growth model)
Format: in vivo, Female Athymic Nude mice
Conditions: for Tumour weight, Difference vs Vehicle / Tumour weight, Estimate: Q3Dx4, G-Block IV, gemcitabine IP; for Estimate (mg), tumour weight geometric mean / Ratio vs Vehicle: Gemcitabine 5
Method: Efficacy was assessed by comparison of tumour weights of treated groups with the vehicle control group on Day 11 and 74 and between combination groups and their respective single agents on Day 11 and 74.
G-Block (Lot #PolyG 230712-Dp10, 95%G) was received as a white hygroscopic amorphous powder from NTNU Technology Transfer AS (Trondheim, Norway) and stored desiccated at room temperature until use. NTNU's G-Block was dissolved in MilliQ water to a concentration of 70 mg/ml to be used as the stock solution. This solution was used to deliver a dose of approximately 560 mg/kg in a 200 μl fixed dose. The 70 mg/ml solution was then diluted in 0.9% 150 mM NaCl (B. Braun Medical; Irvine, Calif.) to deliver doses of approximately 200 mg/kg, 75 mg/kg, 25 mg/kg, and 5 mg/kg in a 200 μL fixed dose volume. All dosing calculations assume a 25 g animal. NTNU's G-Block 70 mg/ml stock solution was formulated at the beginning of the study and used for dilutions before each dose, sterile filtered, and stored at 4° C. between doses. All unused dosing mixture was properly disposed of at TD2 after the study ended.
All unused dosing mixture was properly disposed of at TD2 after each dose.
Vehicle control was dosed with a solution of 0.9% 150 mM NaCl at a 10 ml/kg dose volume. Vehicle control was stored at room temperature.
Capan-2 human pancreas tumour xenograft cell line was received from ATCC (Manassas, Va.). Cultures were maintained in McCoy's 5A medium (Hyclone, Logan, Utah) supplemented with 10% fetal bovine serum (Omega Scientific; Tarzana, Calif.), and housed in a 5% CO2 atmosphere. The cultures were expanded in tissue culture flasks at a 1:5 split ratio until a sufficient amount of cells were harvested.
Female Athymic Nude mice (Hsd:Athymic Nude-Foxn1^nu) were supplied by Harlan (Germantown, N.Y.). Mice were received at 4 weeks of age. All mice were acclimated prior to handling. The mice were housed in microisolator cages (Lab Products, Seaford, Del.) and maintained under specific pathogen-free conditions. The mice were fed Tekland Global Diet® 2920× irradiated laboratory animal diet (Harlan, Indianapolis, Ind.) and autoclaved water was freely available. All procedures were carried out under the institutional guidelines of TGen Drug Development Institutional Animal Care and Use Committee (Protocol #13046).
Female mice were inoculated subcutaneously in the right flank with 0.1 mL of a 50% RPMI/50% Matrigel™ (BD Biosciences, Bedford, Mass.) mixture containing a suspension of Capan-2 tumor cells (approximately 5.0×10^6 cells/mouse). Seven days following inoculation, tumors were measured using calipers and tumor weight was calculated using the animal study management software, Study Director V.2.1.1 (Study Log)^1. Eighty mice with tumor sizes of 101-194 mg were randomized into eight groups of ten mice each by random equilibration with a mean of approximately 140 mg, using Study Director (Day 1). Body weights were recorded when the mice were randomized and were taken twice weekly thereafter in conjunction with tumor measurements. Dosing was performed as described below in Table 1.
All groups were terminated on Day 74. Mice were sacrificed prior to study end if tumor weight exceeded 1500 mg. Upon necropsy, tumors were excised from all animals in all groups and bisected in halves, placed in formalin vials (Azer Scientific/VWR; Franklin Lakes, N.J.) then fixed for approximately 24 hours before transferring to ethanol. Formalin-fixed tissues were embedded in paraffin, processed, and H & E stained.
The following concerns a statistical analysis of tumour weights in the study reported in Example 2. […] Tumour weight and body weights were assessed Day 1 and then twice weekly up to last assessment on Day 74.
Treatments were compared using an analysis of variance (ANOVA) model with fixed factor treatment and tumour weight at Day 1 as a covariate and assuming equal variance for each assessment (Day 1 model without covariate).

[1] = 0-19 days, label number = dose mg/kg, Q3Dx4
[2] = 0-29 days, label number = dose mg/kg, Q3Dx4
[3] = 0-39 days, label number = dose mg/kg, Q3Dx4
[4] = 0-50 days, label number = dose mg/kg, Q3Dx4
[5] = 0-60 days, label number = dose mg/kg, Q3Dx4
[6] = Day 1 (randomisation), label number = dose mg/kg
[7] = Day 4, label number = dose mg/kg
[8] = Day 8, label number = dose mg/kg
[9] = Day 11, label number = dose mg/kg
[10] = Day 16, label number = dose mg/kg
[11] = Day 19, label number = dose mg/kg
[12] = Day 22, label number = dose mg/kg
[13] = Day 25, label number = dose mg/kg
[14] = Day 29, label number = dose mg/kg
[15] = Day 32, label number = dose mg/kg
[16] = Day 36, label number = dose mg/kg
[17] = Day 39, label number = dose mg/kg
[18] = Day 43, label number = dose mg/kg
[19] = Day 46, label number = dose mg/kg
[20] = Day 50, label number = dose mg/kg
[21] = Day 53, label number = dose mg/kg
[22] = Day 57, label number = dose mg/kg
[23] = Day 60, label number = dose mg/kg
[24] = Day 64, label number = dose mg/kg
[25] = Day 67, label number = dose mg/kg
[26] = Day 71, label number = dose mg/kg
[27] = Day 74, label number = dose mg/kg

## Nc1ccn([C@@H]2O[C@H](CO)[C@@H](O)C2(F)F)c(=O)n1 [Gemcitabine 5, Gemcitabine]
[1]
  Eau, 0-19 (average tumour weight = AUC / interval length), Estimate: 173.4 mg
  Eau, 0-19, Difference vs Vehicle: -67.6 mg
[2]
  Eau, 0-29 (average tumour weight = AUC / interval length), Estimate: 195.5 mg
  Eau, 0-29, Difference vs Vehicle: -93.6 mg
[3]
  Eau, 0-39 (average tumour weight = AUC / interval length), Estimate: 231.3 mg
  Eau, 0-39, Difference vs Vehicle: -118.1 mg
[4]
  Eau, 0-50 (average tumour weight = AUC / interval length), Estimate: 292.1 mg
  Eau, 0-50, Difference vs Vehicle: -121.2 mg
[5]
  Eau, 0-60 (average tumour weight = AUC / interval length), Estimate: 349.7 mg
  Eau, 0-60, Difference vs Vehicle: -118.4 mg
ANOVA by day
  Consistent statistically significant effect versus Vehicle on tumour weight, up to Day: ≤ 36
ANOVA of Eav
  Eav intervals with statistically significant effects versus Vehicle, up to: up to 50 days
[6]
  Tumour weight, Difference vs Vehicle: -0.0 mg
  Tumour weight, Estimate: 140.7 mg
Day 1
  Estimate (mg), tumour weight geometric mean: 138.6 mg
  Ratio vs Vehicle: 1.00
Day 4
  Estimate (mg), tumour weight geometric mean: 186.7 mg
[7]
  Tumour weight, Difference vs Vehicle: 14.1 mg
  Tumour weight, Estimate: 189.8 mg
Day 8
  Estimate (mg), tumour weight geometric mean: 157.0 mg
  Ratio vs Vehicle: 0.71
[8]
  Tumour weight, Difference vs Vehicle: -69.0 mg
  Tumour weight, Estimate: 161.6 mg
Day 11
  Estimate (mg), tumour weight geometric mean: 167.8 mg
  Ratio vs Vehicle: 0.64
[9]
  Tumour weight, Difference vs Vehicle: -111.0 mg
  Tumour weight, Estimate: 174.2 mg
Day 16
  Estimate (mg), tumour weight geometric mean: 172.5 mg
  Ratio vs Vehicle: 0.63
[10]
  Tumour weight, Difference vs Vehicle: -116.3 mg
  Tumour weight, Estimate: 181.4 mg
Day 19
  Estimate (mg), tumour weight geometric mean: 185.1 mg
  Ratio vs Vehicle: 0.64
[11]
  Tumour weight, Difference vs Vehicle: -119.5 mg
  Tumour weight, Estimate: 194.7 mg
Day 22
  Estimate (mg), tumour weight geometric mean: 216.1 mg
  Ratio vs Vehicle: 0.67
[12]
  Tumour weight, Difference vs Vehicle: -122.5 mg
  Tumour weight, Estimate: 225.0 mg
Day 25
  Estimate (mg), tumour weight geometric mean: 233.4 mg
  Ratio vs Vehicle: 0.64
[13]
  Tumour weight, Difference vs Vehicle: -157.9 mg
  Tumour weight, Estimate: 244.0 mg
Day 29
  Estimate (mg), tumour weight geometric mean: 258.9 mg
  Ratio vs Vehicle: 0.64
[14]
  Tumour weight, Difference vs Vehicle: -164.9 mg
  Tumour weight, Estimate: 273.6 mg
Day 32
  Estimate (mg), tumour weight geometric mean: 286.5 mg
  Ratio vs Vehicle: 0.62
[15]
  Tumour weight, Difference vs Vehicle: -208.5 mg
  Tumour weight, Estimate: 310.1 mg
Day 36
  Estimate (mg), tumour weight geometric mean: 324.4 mg
  Ratio vs Vehicle: 0.68
[16]
  Tumour weight, Difference vs Vehicle: -190.3 mg
  Tumour weight, Estimate: 360.9 mg
Day 39
  Estimate (mg), tumour weight geometric mean: 349.9 mg
  Ratio vs Vehicle: 0.78
[17]
  Tumour weight, Difference vs Vehicle: -165.4 mg
  Tumour weight, Estimate: 389.6 mg
Day 43
  Estimate (mg), tumour weight geometric mean: 439.5 mg
  Ratio vs Vehicle: 0.84
[18]
  Tumour weight, Difference vs Vehicle: -138.1 mg
  Tumour weight, Estimate: 506.6 mg
Day 46
  Estimate (mg), tumour weight geometric mean: 460.6 mg
  Ratio vs Vehicle: 0.86
[19]
  Tumour weight, Difference vs Vehicle: -107.4 mg
  Tumour weight, Estimate: 536.4 mg
Day 50
  Estimate (mg), tumour weight geometric mean: 485.0 mg
  Ratio vs Vehicle: 0.85
[20]
  Tumour weight, Difference vs Vehicle: -130.4 mg
  Tumour weight, Estimate: 573.5 mg
Day 53
  Estimate (mg), tumour weight geometric mean: 530.7 mg
  Ratio vs Vehicle: 0.93
[21]
  Tumour weight, Difference vs Vehicle: -61.2 mg
  Tumour weight, Estimate: 653.0 mg
Day 57
  Estimate (mg), tumour weight geometric mean: 516.6 mg
  Ratio vs Vehicle: 0.90
[22]
  Tumour weight, Difference vs Vehicle: -144.3 mg
  Tumour weight, Estimate: 626.6 mg
Day 60
  Estimate (mg), tumour weight geometric mean: 539.6 mg
  Ratio vs Vehicle: 1.00
[23]
  Tumour weight, Difference vs Vehicle: -84.5 mg
  Tumour weight, Estimate: 680.5 mg
Day 64
  Estimate (mg), tumour weight geometric mean: 633.3 mg
[24]
  Tumour weight, Difference vs Vehicle: 76.1 mg
  Tumour weight, Estimate: 869.5 mg
Day 67
  Estimate (mg), tumour weight geometric mean: 695.7 mg
[25]
  Tumour weight, Difference vs Vehicle: 85.1 mg
  Tumour weight, Estimate: 952.8 mg
Day 71
  Estimate (mg), tumour weight geometric mean: 746.4 mg
[26]
  Tumour weight, Difference vs Vehicle: 54.2 mg
  Tumour weight, Estimate: 1078.5 mg
Day 74
  Estimate (mg), tumour weight geometric mean: 746.3 mg
  Ratio vs Vehicle: 1.33
[27]
  Tumour weight, Difference vs Vehicle: 157.2 mg
  Tumour weight, Estimate: 1009.1 mg
Exponential model y=C*exp(a*t), t in days, data up to 60 days, label number = dose mg/kg
  Estimated differences vs Vehicle in growth rates: −0.0042
Exponential model, data up to 60 days, contrast vs G-Block 560 mg/kg alone
  Estimated differences between active treatments in growth rates, vs G-B 560: −0.0015
